# Patent publication US20080020387A1, “BIOMARKER-OPTIMIZED ADHD TREATMENT” (priority 2006, published 2008)
# How the values were obtained:
# [1] = tested on: children with ADHD; conditions: single 10 mg dose, Moll et al. (2000); cited from earlier work
# [2] = tested on: ADHD patients; conditions: cited from earlier work
# [3] = tested on: children with ADHD; assay: Reported side effects after single drug dose and TMS; assay type: in vivo, human
# Procedure: (§1) The study is a randomized, double-blind, crossover design comparing the effects of single doses of atomoxetine (ATX) and methylphenidate (MPH). Sixteen patients (age 8-17 years, mean age=12, ±3; 2 girls) participate. Nine have TS. Medication doses are clinically relevant: approximately 0.5 mg/kg for MPH and 1.0 mg/kg for ATX, administered as follows:
# (§2) 1) subjects 20-29 kg→10 mg MPH, 20 mg ATX; 2) subjects 30-49 kg→20 mg MPH, 40 mg ATX; 3) subjects 50 kg and above→30 mg MPH, 60 mg ATX. Subjects and investigators are blind to the order of treatment throughout the study. The one-week interval between study visits is based on published pharmacokinetic data for single doses of ATX.
# [4] = tested on: children with ADHD; assay: Paired and single TMS of motor cortex measuring short interval cortical inhibition (SICI) before and after single drug doses; assay type: in vivo, human; conditions: for Cortical Inhibition (SICI), post-medication: 90 minutes later
# Procedure: Accordingly, sixteen children with ADHD, aged 8-17, are studied. Seven are homozygotes for the 10-repeat allele. Subjects are given single oral doses of 0.5 mg/kg methylphenidate and 1.0 mg/kg atomoxetine at visits separated by one week in a randomized, double-blind crossover design. Paired and single TMS are used to measure SICI before and after drug administration. Medication and genotype effects on SICI are estimated with repeated measures, mixed model regression. […] Some variation in ADHD medication-induced neurophysiological responses is explained by differences in the number of 3′-UTR, 10-repeat VNTR alleles in DAT1.
# as §1, §2
# Neurophysiological studies are performed as described by Gilbert et al. ((2006) Neuropsychopharmacology 31 :442-449). TMS is performed by an investigator blind to genotype and clinical ratings.
# Resting and active motor threshold (RMT and AMT) are measured using the method described in Mills and Nithi ((1997) Muscle and Nerve 20:570-576). SICI and intracortical facilitation (ICF) are measured with the Abductor Pollicis Brevis (APB) at rest, according to established paradigms (Kujirai et al. (1993) J. Physiol. 471:501-519; Ziemann et al. (1997) Electroencelphalogr. Clin. Neurophysiol. 105:430-437). SICI is measured with a conditioning pulse, 1% of stimulator output below AMT (˜70% of RMT), delivered 3 msec before a suprathreshold test pulse. ICF is measured with the conditioning pulse 10 msec before the test pulse. Twenty trials at each interval and 20 unconditioned test pulses are delivered in random order. SICI and ICF are expressed as the ratios of the mean motor evoked potential (MEP) amplitudes evoked by the pulse pairs divided by the mean amplitude of the MEP from the single test pulses.
# After baseline TMS testing, subjects are administered study medication, and all measurements are repeated 90 minutes later, consistent with expected peak serum drug levels. Each TMS session takes approximately 30 minutes.
# Primary analysis. The primary outcome of interest for this study is ADHD-medication, genotype, and medication*genotype effects on cortical inhibition (SICI). SICI measures are subjected to a mixed model, repeated measures analysis of variance using PROC MIXED. After assuring that baselines are not different and that there are no effects of order, we then model SICI=medication+DAT genotype+medication*genotype, combining baselines. Age and ADHD severity scores are also entered into the models as potential explanatory covariates. ICF is modeled in the same manner to determine if any effects are specific to cortical inhibition.
# Secondary analyses. The secondary outcome of interest is to compare ATX and MPH effects on cortical inhibition (SICI). Two repeated measure regressions are performed: 1) the baselines-combined model above, and 2) a day-of-visit, baseline-adjusted model. Genotypes are entered to estimate genotype-specific effects of ATX vs. MPH. The Tic phenotype is entered to estimate TIC*medication and TIC*ATX vs. TIC*MPH effects. In addition, using Spearman, correlations of changes in SICI and ICF are assessed for ATX and MPH, and for SICI and ADHD severity.
# [5] = DAT1 10-repeat homozygotes, single oral dose
# [6] = DAT 9, 10 genotype, single oral dose, baseline-adjusted estimate
# [7] = DAT 10, 10 genotype, single oral dose, baseline-adjusted estimate
# [8] = No Tics, single oral dose, baseline-adjusted estimate
# [9] = Tics, single oral dose, baseline-adjusted estimate
# [10] = all subjects, single oral dose ~1.0 mg/kg ATX or ~0.5 mg/kg MPH, adjusted for day-of-visit pre-treatment SICI, MEP amplitude ratio
# [11] = heterozygotes (single 10-repeat DAT1 allele), single oral dose
# [12] = individuals with ADHD and no TS, single oral dose
# [13] = patients with ADHD and TS, single oral dose
smiles,measurement,setting,value
"COC(=O)C(c1ccccc1)C1CCCCN1 (stereo not shown) [MPH, methylphenidate]",Effect on SICI,[1],significantly increase (normalize) SICI
same,Clinical response by DAT1 genotype,"[2]; individuals with the DAT1 10/10 genotype, e.g. Cheon et al. (2005)",poorer clinical response
same,Severity rating of side effects,[3]; after drug/TMS,"mild, except for one child who reports a moderate headache"
same,Side effect: abdominal pain (number of reports),[3]; after drug/TMS,1
same,Side effect: arm/other pain (number of reports),[3]; after drug/TMS,2
same,Side effect: headache (number of reports),[3]; after drug/TMS,3
same,Side effect: hearing change (number of reports),[3]; after drug/TMS,1
same,Side effect: numbness/tingling (number of reports),[3]; after drug/TMS,1
same,Number of subjects reporting side effects,"[3]; of 16 subjects, after drug/TMS",6 subjects
same,Effect of medication on SICI,[4]; [5],slight decrease in SICI
same,"Cortical Inhibition (SICI), post-medication",[4]; [6],0.47
same,"Cortical Inhibition (SICI), post-medication",[4]; [7],0.61
same,"Cortical Inhibition (SICI), post-medication",[4]; [8],0.64
same,"Cortical Inhibition (SICI), post-medication",[4]; [9],0.44
same,"Cortical Inhibition (SICI), post-medication",[4]; [10],0.54
same,Effect of medication on SICI,[4]; [11],tend to increase (normalize) SICI
same,Effect of medication on SICI,[4]; [12],decrease SICI
same,Effect of medication on SICI,[4]; [13],increase (normalize) SICI
"CNCC[C@@H](Oc1ccccc1C)c1ccccc1 [ATX, atomoxetine]",ADHD patients who do not respond to treatment (non-response rate),"[2]; clinical evidence, Michelson et al. (2002)",approximately 40%
same,Number of subjects reporting side effects,"[3]; both, human, in vivo",4 subjects
same,Side effect: headache (number of reports),"[3]; both, human, in vivo",3
same,Side effect: loss of appetite (number of reports),"[3]; both, human, in vivo",2
same,Side effect: nausea (number of reports),"[3]; both, human, in vivo",2
same,Side effect: numbness/tingling (number of reports),"[3]; both, human, in vivo",1
same,Side effect: scalp pain (number of reports),"[3]; both, human, in vivo",1
same,Side effect: stomach pain (number of reports),"[3]; both, human, in vivo",1
same,Severity rating of side effects,[3]; in vivo,mild
same,Effect of medication on SICI,[4]; [5],slight decrease in SICI
same,"Cortical Inhibition (SICI), post-medication",[4]; [6],0.51
same,"Cortical Inhibition (SICI), post-medication",[4]; [7],0.66
same,"Cortical Inhibition (SICI), post-medication",[4]; [8],0.62
same,"Cortical Inhibition (SICI), post-medication",[4]; [9],0.56
same,"Cortical Inhibition (SICI), post-medication",[4]; [10],0.59
same,Effect of medication on SICI,[4]; [11],tend to increase (normalize) SICI
same,Effect of medication on SICI,"[4]; heterozygotes (single 10-repeat DAT1 allele), single oral dose, listed as Atomoxetine",increases (improves) SICI
same,Effect of medication on SICI,[4]; [12],decrease SICI
same,Effect of medication on SICI,[4]; [13],increase (normalize) SICI
